# System: HCC1806 cells
# Experiment: Cell proliferation inhibition assay (MTT, 7 days)
# Type: cell-based
# Details: Homo sapiens, HCC1806, 168 h, HCC1086 [sic], 7 days incubation
# Procedure: (§1) MCF7, T47D, OVCAR3 and HCC1806 cells were inoculated in 96-well plates at 3000, 3000, 2500, and 2000 cells/well, respectively, and cultured overnight at 37° C., 5% C02 incubator.
# (§2) 1. […] Then 2.5 μl of the stock solution was dissolved in 497.5 μl of DMSO-free medium, and then a 3-fold serial gradient dilution was performed with 0.1% DMSO medium for a total of 9 concentrations, and the concentrations of the compounds after dilution were as follows: • 10000 nM, 3333.33 nM, 1111.11 nM, 370.34 nM, 123.45 nM, 41.15 nM, 13.72 nM, 4.57 nM, and 1.52 nM. • b) After fully mixing, 20 μL of compound solutions were added into cell culture plates containing 80 μL of cells respectively, with 4 replicate wells for each concentration. • c) The cells were transferred to an incubator and incubated for 7 days, and exchanged with fresh culture medium containing the same concentration of compounds when incubated to day 4. 2. MTT assay • a) The cell culture plate was taken out and 10 μL of 5 mg/ml MTT was added to the hood. • b) The cell culture plate was put back into the incubator and continued to incubate for 3 hours. • c) The cell culture plate was taken out to remove the culture medium, and 100 μL of isopropanol (0.4 mMHCl, 0.4% NP40) was added to the plate, and the plate was shaken on a shaker at room temperature for 30 minutes and read at 570 nm. 3. Data analysis
# (§3) The survival rate (% Cell Survival) was calculated using the following equation:
# (§4) % Cell Survival=100%×(OD_Sample−OD_LCave)/(OD_HC−OD_LCave) • OD_HC: 0.1‰ cell readings of DMSO control • OD_Sample: cell readings of compound addition • OD_LC: readings of blank medium • Analyed by Prizm: Dose-response-Inhibition Log(inhibitor) vs response (three parameters for the best fit)
# (§5) IC50 (nM) values were calculated by concentration-response curve fitting.
row,Compound,IC50
1,C[C@@]1(O)CCC[C@H]1n1c(=O)c(OC(F)F)cc2cnc(NC3CCN(S(=O)(=O)c4cc(F)c(F)cc4F)CC3)nc21 [Example 21],200 to 51000 nM
2,C[C@@]1(O)CCC[C@H]1n1c(=O)c(OC(F)F)cc2cnc(NC3CCN(S(=O)(=O)c4ccccc4)CC3)nc21 [Example 16],≤ 50 nM
3,C[C@@]1(O)CCC[C@H]1n1c(=O)c(OC(F)F)cc2cnc(NC3CCN(C(=O)C(F)(F)F)CC3)nc21 [Example 57],200 to 51000 nM
4,C[C@@]1(O)CCC[C@H]1n1c(=O)c(OC(F)F)cc2cnc(NC3CCN(S(=O)(=O)C4CCC(F)(F)CC4)CC3)nc21 [Example 54],200 to 51000 nM
5,C[C@@]1(O)CCC[C@H]1n1c(=O)c(OC(F)F)cc2cnc(NC3CCN(S(=O)(=O)C4CCCCC4)CC3)nc21 [Example 49],200 to 51000 nM
6,C[C@@]1(O)CCC[C@H]1n1c(=O)c(OC(F)F)cc2cnc(NC3CCN(S(=O)(=O)C4CCC(O)CC4)CC3)nc21 (some centres unmarked) [Example 56],200 to 51000 nM
7,C[C@@]1(O)CCC[C@H]1n1c(=O)c(OC(F)F)cc2cnc(NC3CCN(S(=O)(=O)C4CC(F)(F)C4)CC3)nc21 [Example 46],50 to 5200 nM

# System: MCF7 cells
# Experiment: Cell proliferation inhibition assay (MTT, 7 days)
# Type: cell-based
# Details: Homo sapiens, 168 h, 7 days incubation
# Procedure: as §1, §2, §3, §4, §5
row,Compound,IC50
1,C[C@@]1(O)CCC[C@H]1n1c(=O)c(OC(F)F)cc2cnc(NC3CCN(S(=O)(=O)c4cc(F)c(F)cc4F)CC3)nc21 [Example 21],200 to 51000 nM
2,C[C@@]1(O)CCC[C@H]1n1c(=O)c(OC(F)F)cc2cnc(NC3CCN(S(=O)(=O)c4ccccc4)CC3)nc21 [Example 16],≤ 50 nM
3,C[C@@]1(O)CCC[C@H]1n1c(=O)c(OC(F)F)cc2cnc(NC3CCN(S(=O)(=O)C4CCC(O)CC4)CC3)nc21 (some centres unmarked) [Example 56],50 to 5200 nM
4,C[C@@]1(O)CCC[C@H]1n1c(=O)c(OC(F)F)cc2cnc(NC3CCN(S(=O)(=O)C4CC(F)(F)C4)CC3)nc21 [Example 46],≤ 50 nM

# System: OVCAR3 cells
# Experiment: Cell proliferation inhibition assay (MTT, 7 days)
# Type: cell-based
# Details: Homo sapiens, OVCAR-3, 168 h, 7 days incubation
# Procedure: as §1, §2, §3, §4, §5
row,Compound,IC50
1,C[C@@]1(O)CCC[C@H]1n1c(=O)c(OC(F)F)cc2cnc(NC3CCN(S(=O)(=O)c4cc(F)c(F)cc4F)CC3)nc21 [Example 21],50 to 5200 nM
2,C[C@@]1(O)CCC[C@H]1n1c(=O)c(OC(F)F)cc2cnc(NC3CCN(S(=O)(=O)c4ccccc4)CC3)nc21 [Example 16],≤ 50 nM
3,C[C@@]1(O)CCC[C@H]1n1c(=O)c(OC(F)F)cc2cnc(NC3CCN(C(=O)C(F)(F)F)CC3)nc21 [Example 57],200 to 51000 nM
4,C[C@@]1(O)CCC[C@H]1n1c(=O)c(OC(F)F)cc2cnc(NC3CCN(S(=O)(=O)C4CCC(F)(F)CC4)CC3)nc21 [Example 54],≤ 50 nM
5,C[C@@]1(O)CCC[C@H]1n1c(=O)c(OC(F)F)cc2cnc(NC3CCN(S(=O)(=O)C4CCCCC4)CC3)nc21 [Example 49],50 to 5200 nM
6,C[C@@]1(O)CCC[C@H]1n1c(=O)c(OC(F)F)cc2cnc(NC3CCN(S(=O)(=O)C4CCC(O)CC4)CC3)nc21 (some centres unmarked) [Example 56],200 to 51000 nM
7,C[C@@]1(O)CCC[C@H]1n1c(=O)c(OC(F)F)cc2cnc(NC3CCN(S(=O)(=O)C4CC(F)(F)C4)CC3)nc21 [Example 46],≤ 50 nM

# System: T47D cells
# Experiment: Cell proliferation inhibition assay (MTT, 7 days)
# Type: cell-based
# Details: Homo sapiens, 168 h, 7 days incubation
# Procedure: as §1, §2, §3, §4, §5
row,Compound,IC50
1,C[C@@]1(O)CCC[C@H]1n1c(=O)c(OC(F)F)cc2cnc(NC3CCN(S(=O)(=O)c4cc(F)c(F)cc4F)CC3)nc21 [Example 21],50 to 5200 nM
2,C[C@@]1(O)CCC[C@H]1n1c(=O)c(OC(F)F)cc2cnc(NC3CCN(S(=O)(=O)c4ccccc4)CC3)nc21 [Example 16],≤ 50 nM
3,C[C@@]1(O)CCC[C@H]1n1c(=O)c(OC(F)F)cc2cnc(NC3CCN(C(=O)C(F)(F)F)CC3)nc21 [Example 57],200 to 51000 nM
4,C[C@@]1(O)CCC[C@H]1n1c(=O)c(OC(F)F)cc2cnc(NC3CCN(S(=O)(=O)C4CCC(F)(F)CC4)CC3)nc21 [Example 54],50 to 5200 nM
5,C[C@@]1(O)CCC[C@H]1n1c(=O)c(OC(F)F)cc2cnc(NC3CCN(S(=O)(=O)C4CCCCC4)CC3)nc21 [Example 49],50 to 5200 nM
6,C[C@@]1(O)CCC[C@H]1n1c(=O)c(OC(F)F)cc2cnc(NC3CCN(S(=O)(=O)C4CCC(O)CC4)CC3)nc21 (some centres unmarked) [Example 56],50 to 5200 nM
7,C[C@@]1(O)CCC[C@H]1n1c(=O)c(OC(F)F)cc2cnc(NC3CCN(S(=O)(=O)C4CC(F)(F)C4)CC3)nc21 [Example 46],≤ 50 nM

# Molecular target: CDK6/CycD1 (Homo sapiens, UniProt Q00534)
# Experiment: Enzyme activity test
# Type: biochemical
# Details: not given
# Procedure: (§6) • 1. The test compounds and pabocinib were configured into a […] solution of DMSO; • 2. 20 nL of stock solution was transferred to a 384-well plate using Echo550. DMSO was used as a blank control.
# (§7) • 1. according to the following table to prepare 1.3X enzyme solution containing enzyme, substrate and cofactor; • 2. 15 μL of 1.3X enzyme solution was added to each well and the mixture was incubated for 30 min at room temperature; • 3. 5 μL of ATP solution was added to initiate the reaction. The final volume of each well was 20 μL; • 4. After incubation for 150 min at room temperature, 75 μL of termination buffer solution was added to terminate the experiment; • 5. The samples were analyzed using EZ reader.
# (§8) The % inhibition was calculated using the following equation
# (§9) The one treated with DMSO is the positive control (PC)
# (§10) The one without enzyme is the negative control (NC)
# (§11) % Inhibition=100-100*((CRPC−CRsample)/(CRPC−CRNC))
# CDK6/CycD1, sequence (Q00534 whole entry, species assumed): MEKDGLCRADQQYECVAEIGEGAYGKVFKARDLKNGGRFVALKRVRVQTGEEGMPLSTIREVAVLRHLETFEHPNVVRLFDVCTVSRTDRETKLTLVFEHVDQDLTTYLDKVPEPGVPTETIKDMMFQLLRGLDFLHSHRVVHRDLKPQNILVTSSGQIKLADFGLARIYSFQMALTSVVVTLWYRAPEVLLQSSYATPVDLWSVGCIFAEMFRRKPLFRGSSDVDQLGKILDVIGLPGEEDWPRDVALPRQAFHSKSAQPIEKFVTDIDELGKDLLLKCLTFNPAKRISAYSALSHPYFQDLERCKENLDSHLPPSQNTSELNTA
# CDK6/CycD1, sequence (P24385 whole entry partner, species assumed): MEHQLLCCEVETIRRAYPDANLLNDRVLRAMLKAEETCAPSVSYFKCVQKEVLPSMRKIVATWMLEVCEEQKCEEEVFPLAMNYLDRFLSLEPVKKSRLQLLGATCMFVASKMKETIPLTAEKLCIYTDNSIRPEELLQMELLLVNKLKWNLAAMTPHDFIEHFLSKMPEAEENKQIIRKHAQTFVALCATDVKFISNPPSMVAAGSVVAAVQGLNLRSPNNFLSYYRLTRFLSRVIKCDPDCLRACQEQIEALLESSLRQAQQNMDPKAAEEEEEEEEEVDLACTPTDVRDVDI
row,Compound,IC50
1,C[C@@]1(O)CCC[C@H]1n1c(=O)c(OC(F)F)cc2cnc(NC3CCN(S(=O)(=O)c4ccccc4)CC3)nc21 [Example 16],< 10 nM

# Molecular target: CDK2/CycE1 (Homo sapiens, UniProt P24941)
# Experiment: Enzyme activity test
# Type: biochemical
# Details: not given
# Procedure: as §6, §7, §8, §9, §10, §11
row,Compound,IC50
1,C[C@@]1(O)CCC[C@H]1n1c(=O)c(OC(F)F)cc2cnc(NC3CCN(S(=O)(=O)c4ccccc4)CC3)nc21 [Example 16],< 10 nM
2,C[C@@]1(O)CCC[C@H]1n1c(=O)c(OC(F)F)cc2cnc(NC3CCN(S(=O)(=O)C4CCC(F)(F)CC4)CC3)nc21 [Example 54],< 10 nM
3,C[C@@]1(O)CCC[C@H]1n1c(=O)c(OC(F)F)cc2cnc(NC3CCN(S(=O)(=O)C4CC(F)(F)C4)CC3)nc21 [Example 46],< 10 nM

# Molecular target: CDK4/CycD3 (Homo sapiens, UniProt P11802)
# Experiment: Enzyme activity test
# Type: biochemical
# Details: not given
# Procedure: as §6, §7, §8, §9, §10, §11
# CDK4/CycD3, sequence (P11802 whole entry, species assumed): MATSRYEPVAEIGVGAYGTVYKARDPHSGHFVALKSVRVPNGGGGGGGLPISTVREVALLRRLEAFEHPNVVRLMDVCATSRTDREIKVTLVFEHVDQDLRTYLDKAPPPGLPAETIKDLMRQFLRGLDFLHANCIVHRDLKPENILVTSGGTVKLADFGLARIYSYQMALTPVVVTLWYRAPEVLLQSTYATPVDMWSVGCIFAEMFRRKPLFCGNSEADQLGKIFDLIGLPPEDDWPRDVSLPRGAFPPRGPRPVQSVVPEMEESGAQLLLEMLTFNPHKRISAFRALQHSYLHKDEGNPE
# CDK4/CycD3, sequence (P30281 whole entry partner, species assumed): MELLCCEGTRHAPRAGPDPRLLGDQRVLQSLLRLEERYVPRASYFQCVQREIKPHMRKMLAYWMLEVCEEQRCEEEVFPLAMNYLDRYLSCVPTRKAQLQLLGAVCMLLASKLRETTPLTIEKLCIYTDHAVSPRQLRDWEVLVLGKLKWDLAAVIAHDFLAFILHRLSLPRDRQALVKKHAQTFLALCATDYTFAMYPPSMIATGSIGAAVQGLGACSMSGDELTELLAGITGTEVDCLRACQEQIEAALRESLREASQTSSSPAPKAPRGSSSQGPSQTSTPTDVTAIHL
row,Compound,IC50
1,C[C@@]1(O)CCC[C@H]1n1c(=O)c(OC(F)F)cc2cnc(NC3CCN(S(=O)(=O)c4ccccc4)CC3)nc21 [Example 16],< 10 nM
2,C[C@@]1(O)CCC[C@H]1n1c(=O)c(OC(F)F)cc2cnc(NC3CCN(S(=O)(=O)C4CCC(F)(F)CC4)CC3)nc21 [Example 54],10 to 100 nM
3,C[C@@]1(O)CCC[C@H]1n1c(=O)c(OC(F)F)cc2cnc(NC3CCN(S(=O)(=O)C4CC(F)(F)C4)CC3)nc21 [Example 46],< 10 nM
